Reference: patent US7420060B2, “Benzopyran derivatives substituted with a thioxobenzoxazole derivative, pharmaceutically acceptable salts thereof, their preparations and pharmaceutical compositions containing them” (Schaeffler KG, priority 2003, dated 2008)

What was measured:
[1] = test system: ischemic myocardial injury models prepared from white rats; assay: Antiischemic activity in the anesthetized rat ischemic myocardial injury model (coronary occlusion 45 min / reperfusion 90 min); assay type: in vivo; conditions: 0.3 mg/kg, intravenous (femoral vein), 30 min before occlusion
Protocol: 75 mg/kg of sodium pentobarbital was injected in abdominal cavity of white male rats (350-450 g, Laboratory Animal Division, Korea Research Institute of Chemical Technology) to anesthetize them. After performing tracheotomy, artificial respiration was induced by 10 ml/kg of stroke volume and 60/min. of heart rate. Cannula was inserted in each of vena fermoralis and aorta fermoralis, through which medicines were administered and blood pressure was measured. In the meantime, since body temperature in a ischemic myocardial injury model was very important factor, directly influencing a result, the temperature of a rat was always kept at 37° C. by using a probe for measuring body temperature inserted in rectum and homeothermic blanket control unit. Mean arterial blood pressure and heart rate (HR) of the rat were measured all through the experiments. Statham P23XL pressure transducer (Grass Ins., MA., USA) was used for measuring blood pressure and ECG/RATE Coupler (Hugo Sachs Electronic, Germany) was used for measuring HR. In addition, all the changes were recorded successively by graphtec linearcorder chart recorder (Graphtec Linearcorder WR 3310, Hugo Sachs Electronic).
According to the method of Selye H, left coronary aorta was occluded as follows. Left thoracotomy was induced. That is, the chest of a rat was a little opened. The right chest of the anesthetized rat was pressurized by the middle finger of left hand, so that the heart was pushed out. The heart was fixed gently by the thumb and the index finger of the left hand. A stitch was carefully put on a part including left anterior descending coronary artery by a suture needle with operating thread (5-0 silk ligature), and the heart was quickly positioned again in thoracic cavity. Then, both ends of operating thread were exposed outside. Both ends of operating thread were passed through PE tube (PE100, 2.5 cm) and left for 20 minutes for stabilization. A vehicle or a medicine was administered through the cannula inserted in femoral vein, which was left for 30 minutes in order for the medicine to work thoroughly. BMS-180448 was used for a control group and the dosage of each test medicine and a control medicine was 0.3 mg/kg each. […]
The coronary artery was reoccluded according to the above method and 2 ml of 1% Evans blue solution was administered by intravenous injection. […] The surface of each slice was inputted in a computer by using Hi-scope, a compact micro vision system, and Image pro plus program, from which both normal blood flow tissue area stained by blue and non-stained area on each slice were measured. The ratio of non-stained area to the gross area of each slice was calculated, by which the weight of each slice was multiplied to calculate AAR (area at risk) of each slice. […]

[2] = test system: ischemic heart isolated from white rat; assay: Cardioprotective effect on isolated ischemic rat heart (Langendorff, 30 min global ischemia / 30 min reperfusion); conditions: 10 μM
Protocol: 100 mg/kg of sodium pentobarbital was injected in abdominal cavity of white male rats (300˜450 g, obtained form the experimental animal team of the Korea Research Institute of Chemical Technology) to anesthetize them. Then, an intravenous injection of 1000 U/kg of heparin was performed before taking out heart. Particularly, cannula(PE 240) was inserted in the trachea, and artificial respiration was tried upon the rat by using a rodent ventilator. Under that condition, aortic cannula was inserted in the aorta and heart was taken out under retrograde perfusion. The extracted heart was hung on Langendorff apparatus quickly and unnecessary tissues on heart were removed. Perfusion was induced under static pressure (85 mmHg) with 37° C. modified Krebs-Henseleit bicarbonate buffer (composition <mM/L>: 116 NaCl, 4.7 KCl, 1.1 MgSO4, 1.17 KH2PO4, 24.9 NaHCO3, 2.52 CaCl2, 8.32 Glucose, 2.0 Pyruvate) saturated with 95% O2/5% CO2. A metal cannula, to which a latex balloon filled with an ethanol-distilled water mixture (1:1 vol/vol) was linked, was inserted in left ventricle through pulmonary vein. Then, left ventricular pressure transmitted through the balloon was transduced by using pressure transducer, and amplified by using Plugsys bridge amplifier isovolumetrically. Then, the pressure was recorded in a recorder (Linearcorder mark 8 WR 3500). Thereafter, heart was stabilized for 15 minutes. Then, left ventricular end diastolic pressure (LVEDP) was given by 5 mmHg and such volume of the balloon was kept all through the experiments.
Baseline cardiac contractile function, heart rate (HR), and coronary flow (CF) were measured. Cardiac contractile function was calculated by […], yielding LVDP (left ventricular developed pressure). Double product RPP (rate-pressure product)(DP), another important parameter for indirectly assessing cardiac performance in Langendorff heart, whose cardiac output could not be measured ordinarily, was calculated by multiplying HR by LVDP. Throughout the experiment, total coronary blood flow was measured by the use of coronary flow probe (diameter: 1.0 mm) installed in aortic cannula with electromagnetic flowmeter. Temperature of heart was steadily maintained by immersing the heart at 37° C. in physiological saline solution to which 95% O2/5% CO2 was constantly supplied. After stabilization for 15 min, the hearts were pre-treated for 10 min with vehicle (0.04% DMSO) only or a compound of the present invention or the control material in the vehicle. Thereafter, cardiac contractile function, HR and CF were repeatedly measured. Global ischemia was induced by completely shutting off the perfusate for 30 min. Severity of ischemia was determined as the time to contracture (TTC, min) during global ischemia in which the first 5 mmHg increase in EDP was observed. Then, the hearts were reperfused and, 30 min later, contractile functions (LVDP, HR and CF) were repeatedly measured. After reperfusion was accomplished for 30 min, LDH (lactate dehydrogenase) was measured with a kit as a sensitive index for loss of cell viability.

COc1ccc2oc(=S)n([C@H]3c4cc([N+](=O)[O-])ccc4O[C@@](C)(C(OC)OC)[C@@H]3O)c2c1 [Example 10, (2R,3R,4S)-6-nitro-3,4-dihydro-3-hydroxy-2-dimethoxymethyl-2-methyl-4-(5-methoxy-2-thioxobenzoxazol-3-yl)-2H-1-benzopyran] was tested, and the “IZ/AAR(%) myocardial infarction size to area at risk” value [1] was 46.6%, the “LDH (concentration of lactate dehydogenase)” value ([2]; after 30 min reperfusion) was 17.3 unit/g and the “EDP (left ventricular end diastolic pressure)” value ([2]; after reperfusion, baseline set at 5 mmHg) was 36.7 mmHg. For the same compound, the “TTC (time to induce contraction / time to contracture)” value ([2]; during 30 min global ischemia, first 5 mmHg increase in EDP) was 24.4 min and the “LVDP × HR (left ventricular developed pressure × heart rate)” value ([2]; reperfusion DP as % of pre-treatment DP, 30 min after reperfusion) was 54.2%.
